Among the data in ChEMBL document CHEMBL5528008, “Design and synthesis of the first PARP-1 and proteasome dual inhibitors to treat breast cancer” (Eur J Med Chem, 2024) are IC50 values, retold here.

For orientation: IC50 means the midpoint of a concentration-inhibition curve.

SMILES strings stand for the structures.

Assay [1] deals with Poly [ADP-ribose] polymerase 1 (Homo sapiens, UniProt P09874). Put plainly: Inhibition of PARP-1 (unknown origin) using Femto-ECL as substrate preincubated for 2.7 hrs followed by substrate addition by chemiluminescence assay.
A further assay has as its target 20S proteasome. Put plainly: Inhibition of 20S proteasome (unknown origin) using […] as substrate. The class given is protein-complex assay, Homo sapiens.
A further assay has as its system BT-549. Put plainly: Cytotoxicity against human BT-549 cells assessed as inhibition of cell growth incubated for 72 hrs by MTT assay. The conditions noted are these: BT-549, 72 h. In kind it is functional, cell-based.
The subject of the next assay is MCF7. Put plainly: Cytotoxicity against human MCF7 cells assessed as inhibition of cell growth incubated for 72 hrs by MTT assay. The class given is functional, cell-based. The conditions noted are these: MCF7, 72 h.
The subject of another assay is MDA-MB-231. Put plainly: Cytotoxicity against human MDA-MB-231 cells assessed as inhibition of cell growth incubated for 72 hrs by MTT assay. The class given is functional, cell-based. The conditions noted are these: MDA-MB-231, 72 h. Background: Tetrazolium assays rely on reduction of a dye to a coloured formazan, in cell work by metabolically active cells.

Chain of Poly [ADP-ribose] polymerase 1 (P09874 whole entry): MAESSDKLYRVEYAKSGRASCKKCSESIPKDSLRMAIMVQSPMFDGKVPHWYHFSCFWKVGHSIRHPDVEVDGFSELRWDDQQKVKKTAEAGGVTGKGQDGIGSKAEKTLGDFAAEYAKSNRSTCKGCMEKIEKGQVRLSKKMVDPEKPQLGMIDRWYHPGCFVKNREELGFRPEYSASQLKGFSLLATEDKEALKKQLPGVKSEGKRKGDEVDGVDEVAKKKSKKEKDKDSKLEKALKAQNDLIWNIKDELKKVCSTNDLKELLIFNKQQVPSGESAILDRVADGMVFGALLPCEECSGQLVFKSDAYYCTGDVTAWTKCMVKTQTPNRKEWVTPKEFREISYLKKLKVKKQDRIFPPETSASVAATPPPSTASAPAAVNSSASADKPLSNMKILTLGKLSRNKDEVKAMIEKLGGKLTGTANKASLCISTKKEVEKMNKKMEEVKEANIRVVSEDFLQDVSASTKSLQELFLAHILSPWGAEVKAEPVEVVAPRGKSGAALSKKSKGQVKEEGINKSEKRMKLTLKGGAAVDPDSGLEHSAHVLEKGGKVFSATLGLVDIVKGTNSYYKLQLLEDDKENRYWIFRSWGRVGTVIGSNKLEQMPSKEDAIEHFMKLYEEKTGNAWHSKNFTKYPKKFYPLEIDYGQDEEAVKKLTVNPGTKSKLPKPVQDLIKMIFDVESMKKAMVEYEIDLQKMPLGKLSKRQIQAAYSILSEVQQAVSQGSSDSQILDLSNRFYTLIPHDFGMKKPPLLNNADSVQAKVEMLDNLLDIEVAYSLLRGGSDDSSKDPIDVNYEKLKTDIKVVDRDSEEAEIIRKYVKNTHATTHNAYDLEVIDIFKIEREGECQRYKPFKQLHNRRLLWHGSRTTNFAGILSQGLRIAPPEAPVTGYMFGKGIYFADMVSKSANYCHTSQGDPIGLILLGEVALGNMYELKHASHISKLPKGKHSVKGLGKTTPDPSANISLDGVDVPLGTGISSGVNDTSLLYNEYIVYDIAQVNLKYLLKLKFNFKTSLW

With `COC[C@H](NC(=O)c1cc(Cc2n[nH]c(=O)c3ccccc23)ccc1F)C(=O)N[C@@H](CC(C)C)B1O[C@@H]2C[C@@H]3C[C@@H](C3(C)C)[C@]2(C)O1`, the IC50 is 247 nM in assay [1]; 21.4 nM against 20S proteasome; 109 nM with BT-549; 40.8 nM in the assay on MCF7; 101 nM with MDA-MB-231.

With `CC(C)C[C@H](NC(=O)CNC(=O)c1cc(Cc2ccc(=O)[nH]n2)ccc1F)B1O[C@@H]2C[C@@H]3C[C@@H](C3(C)C)[C@]2(C)O1`, the IC50 in assay [1] is over 1000 nM; at 20S proteasome, 2150 nM.

Turning to `CC(C)C[C@H](NC(=O)[C@H](Cc1ccccc1)NC(=O)c1cc(Cc2n[nH]c(=O)c3ccccc23)ccc1F)B1O[C@@H]2C[C@@H]3C[C@@H](C3(C)C)[C@]2(C)O1`, the IC50 came to 98 nM in assay [1]; 24.7 nM on 20S proteasome; 84.9 nM in the assay on BT-549; 58.6 nM in the assay on MCF7; 63.6 nM with MDA-MB-231.

For `CC(C)C[C@H](NC(=O)[C@@H](NC(=O)c1cc(Cc2n[nH]c(=O)c3ccccc23)ccc1F)C(C)C)B1O[C@@H]2C[C@@H]3C[C@@H](C3(C)C)[C@]2(C)O1`, the IC50 amounted to 151 nM in assay [1]; 98.3 nM at 20S proteasome; 13.3 nM in the assay with BT-549; 174 nM in the assay on MCF7; 20.8 nM in the assay with MDA-MB-231.

In turn, `CC(C)C[C@H](NC(=O)[C@H](Cc1c[nH]c2ccccc12)NC(=O)c1cc(Cc2n[nH]c(=O)c3ccccc23)ccc1F)C(=O)[C@@]1(C)CO1` returned an IC50 at 20S proteasome of 1060 nM.

On to `CC(C)C[C@H](NC(=O)[C@H](Cc1c[nH]c2ccccc12)NC(=O)c1cc(Cc2n[nH]c(=O)c3ccccc23)ccc1F)B(O)O`, for which the IC50 is 98 nM in assay [1] and 56.1 nM at 20S proteasome.

Consider `CC(C)C[C@H](NC(=O)[C@H](Cc1ccccc1)NC(=O)c1cc(Cc2n[nH]c(=O)c3ccccc23)ccc1F)B(O)O`, for which the figures for the IC50 (in assay [1]; on 20S proteasome) were 291 nM and 87.8 nM, respectively.

Take `CC(C)C[C@H](NC(=O)[C@H](Cc1ccccc1)NC(=O)c1cc(Cc2n[nH]c(=O)c3ccccc23)ccc1F)C(=O)[C@@]1(C)CO1`: at 20S proteasome, half-maximal inhibition (IC50) required 1420 nM.

For `CC(C)C[C@H](NC(=O)[C@H](CCc1ccccc1)NC(=O)c1cc(Cc2n[nH]c(=O)c3ccccc23)ccc1F)B1O[C@@H]2C[C@@H]3C[C@@H](C3(C)C)[C@]2(C)O1`, the IC50 in assay [1] turned out to be 100 nM; at 20S proteasome, 34.5 nM; with BT-549 it was 294 nM; with MCF7 it was 14.6 nM; in the assay on MDA-MB-231, 29.5 nM.

`CC(C)C[C@H](NC(=O)[C@H](Cc1ccc(O)cc1)NC(=O)c1cc(Cc2n[nH]c(=O)c3ccccc23)ccc1F)B1O[C@@H]2C[C@@H]3C[C@@H](C3(C)C)[C@]2(C)O1`: the IC50 is 116 nM in assay [1]; 47.6 nM against 20S proteasome; 348 nM in the assay with BT-549; 980 nM in the assay on MCF7; 328 nM in the assay with MDA-MB-231.

For the compound `CCC[C@H](NC(=O)c1cc(Cc2n[nH]c(=O)c3ccccc23)ccc1F)C(=O)N[C@@H](CC(C)C)B1O[C@@H]2C[C@@H]3C[C@@H](C3(C)C)[C@]2(C)O1`, the IC50 in assay [1] amounted to 203 nM; on 20S proteasome it was 103 nM; in the assay on BT-549, 605 nM; in the assay with MCF7, 87.9 nM; in the assay with MDA-MB-231 it was 338 nM.

In assay [1], `CC(C)C[C@H](NC(=O)[C@H](Cc1ccccc1)NC(=O)c1cc(COc2ccccc2C(N)=O)ccc1F)B1O[C@@H]2C[C@@H]3C[C@@H](C3(C)C)[C@]2(C)O1` yielded an IC50 of over 1000 nM.

`Cc1c(Cc2ccc(F)c(C(=O)NCC(=O)N[C@@H](CC(C)C)B3O[C@@H]4C[C@@H]5C[C@@H](C5(C)C)[C@]4(C)O3)c2)n[nH]c(=O)c1C`: the IC50 came to 173 nM in assay [1] and 39.5 nM on 20S proteasome.

For `CC(C)C[C@H](NC(=O)[C@H](C)NC(=O)c1cc(Cc2n[nH]c(=O)c3ccccc23)ccc1F)B1O[C@@H]2C[C@@H]3C[C@@H](C3(C)C)[C@]2(C)O1`, the IC50 in assay [1] stood at 118 nM; against 20S proteasome, 132 nM; in the assay on BT-549 it was 41 nM; with MCF7, 20.8 nM; in the assay with MDA-MB-231 it was 37 nM.

`CC(C)C[C@H](NC(=O)CNC(=O)c1cc(Cc2n[nH]c(=O)c3ccccc23)ccc1F)C(=O)[C@@]1(C)CO1` had an IC50 on 20S proteasome of over 10000 nM.

For `COC[C@H](NC(=O)c1cc(Cc2n[nH]c(=O)c(C)c2C)ccc1F)C(=O)N[C@@H](CC(C)C)B1O[C@@H]2C[C@@H]3C[C@@H](C3(C)C)[C@]2(C)O1`, in assay [1], the IC50 was over 1000 nM.

For the compound `CC(C)C[C@H](NC(=O)[C@@H](NC(=O)c1cc(Cc2n[nH]c(=O)c3ccccc23)ccc1F)[C@H](C)O)B1O[C@@H]2C[C@@H]3C[C@@H](C3(C)C)[C@]2(C)O1`, the IC50 in assay [1] is 273 nM; against 20S proteasome it was 13.8 nM; in the assay with BT-549 it was 179 nM; in the assay on MCF7, 493 nM; in the assay on MDA-MB-231 it was 178 nM.

In the case of `CC(C)C[C@H](NC(=O)CNC(=O)c1cc(Cc2n[nH]c(=O)c3ccccc23)ccc1F)B(O)O`, the IC50 in assay [1] came out at 4.1 nM; at 20S proteasome it was 386 nM.

On to `CC(C)C[C@H](NC(=O)CNC(=O)c1cc(Cc2n[nH]c(=O)c3ccccc23)ccc1F)B1O[C@@H]2C[C@@H]3C[C@@H](C3(C)C)[C@]2(C)O1`, for which the IC50 in assay [1] worked out at 2.1 nM; at 20S proteasome, 157 nM; in the assay on BT-549, 97.7 nM; in the assay on MCF7, 355 nM; in the assay with MDA-MB-231 it was 249 nM.

On to `CC(C)C[C@H](NC(=O)[C@H](Cc1c[nH]c2ccccc12)NC(=O)c1cc(Cc2n[nH]c(=O)c3ccccc23)ccc1F)B1O[C@@H]2C[C@@H]3C[C@@H](C3(C)C)[C@]2(C)O1`, for which the IC50 in assay [1] was found to be 28 nM; at 20S proteasome, 42.6 nM; with BT-549 it was 216 nM; with MCF7, 45.1 nM; with MDA-MB-231, 297 nM.

For `CC(C)C[C@H](NC(=O)[C@@H](NC(=O)c1cc(Cc2n[nH]c(=O)c3ccccc23)ccc1F)C(C)(C)C)B1O[C@@H]2C[C@@H]3C[C@@H](C3(C)C)[C@]2(C)O1`, the IC50 in assay [1] stood at 171 nM; on 20S proteasome, 65.6 nM; with BT-549 it was 12.3 nM; in the assay with MCF7, 130 nM; with MDA-MB-231, 28.1 nM.

The compound `Cc1c(Cc2ccc(F)c(C(=O)N[C@@H](Cc3ccccc3)C(=O)N[C@@H](CC(C)C)B3O[C@@H]4C[C@@H]5C[C@@H](C5(C)C)[C@]4(C)O3)c2)n[nH]c(=O)c1C` returned an IC50 in assay [1] of over 1000 nM.
